Test results reported in ChEMBL document CHEMBL1151106, “Chemical studies on mexican plants used in traditional medicine, VI. Additional new 4-phenylcoumarins from Exostema caribaeum” (1988).
Values after ≈ are worked out from the molar mass of the structure shown. Active and inactive are the calls of the source. No cut-off for these calls is given here.

The compounds below were run on Candida albicans (assay: Antifungal activity against Candida albicans).
Assay type: functional
`COc1cc(O[C@@H]2O[C@H](COC(C)=O)[C@H](O)[C@H](O)[C@H]2O)c2c(-c3ccc(O)c(O)c3)cc(=O)oc2c1` was tested, and the Activity was “Active”.
For `COc1ccc(-c2cc(=O)oc3cc(OC)cc(O[C@@H]4O[C@H](CO)[C@H](O)[C@H](O)[C@H]4O)c23)cc1`, the Activity was “Active”.
For `COc1cc(O)c2c(-c3ccc(O)c(O)c3)cc(=O)oc2c1`, the Activity was “inactive”.
In the case of `COc1cc(O[C@@H]2O[C@H](CO)[C@H](O)[C@H](O)[C@H]2O)c2c(-c3ccc(O)c(O)c3)cc(=O)oc2c1`, the MIC was 12.5 µg/mL (≈ 27 µM).
In the case of `COc1cc(O)c2c(-c3ccc(OC)c(O)c3)cc(=O)oc2c1`, the Activity was “Active”.
For `COc1cc2c3c(cc(=O)oc3c1)-c1cc(O)c(OC)cc1O2`, the Activity was “inactive”.
`COc1cc(O[C@@H]2O[C@H](CO)[C@@H](O)[C@H](O)[C@H]2O)c2c(-c3ccc(O)c(O)c3)cc(=O)oc2c1` was tested, and the Activity was “Active”.
